{
  "source": "patent US8202906B2",
  "about": "“Use of docosahexanoic acid as active substance for the treatment of lipodystrophy” (Proyecto Empresarial Brudy, S.L., priority 2002, dated 2012)",
  "key": {"[1]": {"tested_on": "HIV-infected patients under HAART regimen and presenting lipodystrophy syndrome", "assay": "Example 1: 3 months' administration to HIV-infected patients under HAART with lipodystrophy syndrome", "format": "in vivo, human", "set-up": "LDL / VLDL / COL. / TG / HDL: unit not given here", "conditions": "4 grams/day", "description": "Four HIV-infected patients under HAART regimen and presenting lipodystrophy syndrome were administered 4 grams/day of a tuna oil with a DHA content of 70%. After three months' administration of DHA to said patients, the following discoveries were made, even taking account of the short period of administration: • 1. […] Mean reduction of 56% in the plasma triglycerides number. • 3. Mean reduction of 25% in the total plasma cholesterol number. • 4. Mean increase of 9% in the plasma HDL cholesterol number. • 5. Mean reduction of 18% in the plasma LDL cholesterol number."}, "[2]": {"tested_on": "patients treated with DHA (lipodystrophy)", "assay": "Example 2: 300-day monitoring of the four patients treated with DHA", "format": "in vivo, human", "set-up": "COL. / VLDL / TG / HDL / LDL: unit not given here", "conditions": "for COL. / HDL / LDL / TG / VLDL: individual patients 1-4", "source_text": "From the four patients treated with DHA at elevated dosages (1.5 g/day), all of them have been monitored for 300 days and, although notable fluctuations are observed, especially regarding to the triglicerids (see Table 2), after 300 days of monitoring, the reduction's mean in the number of triglycerids with respect to the basal level is 66% and for the cholesterol is 28.0%.\nAll patients have improved their fat redistribution, from the point of view subjective and according to the skill's criterion."}, "[3]": {"conditions": "3 months, mean of four patients"}, "[4]": {"conditions": "after 3 months of treatment, individual patients 1-4"}, "[5]": {"conditions": "1.5 g/day, after 300 days of monitoring, four patients"}},
  "note": "Several values for one entry are separate records, joined by “and”; a condition that tells them apart may be missing. Equal entries are not always repeated.",
  "data": [
    {"smiles": "CC/C=C\\C/C=C\\C/C=C\\C/C=C\\C/C=C\\C/C=C\\CCC(=O)O", "note": "[DHA, docosahexaenoic acid]", "values": [
      {"measurement": "Mean increase in the plasma HDL cholesterol number", "setting": "[1]; [3]", "result": 9, "unit": "%"},
      {"measurement": "Mean reduction in the plasma LDL cholesterol number", "setting": "[1]; [3]", "result": 18, "unit": "%"},
      {"measurement": "Mean reduction in the plasma triglycerides number", "setting": "[1]; [3]", "result": 56, "unit": "%"},
      {"measurement": "Mean reduction in the total plasma cholesterol number", "setting": "[1]; [3]", "result": 25, "unit": "%"},
      {"measurement": "COL.", "setting": "[1]; [4]", "result": "5.46 and 9.48 and 3.82 and 9.9"},
      {"measurement": "HDL", "setting": "[1]; [4]", "result": "1.57 and 0.91 and 1.05 and 0.98"},
      {"measurement": "LDL", "setting": "[1]; [4]", "result": "3.43 and 3.35 and 1.97 and 6.67"},
      {"measurement": "TG", "setting": "[1]; [4]", "result": "1 and 10.66 and 1.73 and 3.41"},
      {"measurement": "VLDL", "setting": "[1]; [4]", "result": "0.46 and 3.74 and 0.8 and 1.82"},
      {"measurement": "drop of HDL cholesterol", "setting": "[2]; [5]", "result": 11.6, "unit": "%"},
      {"measurement": "reduction's mean in the cholesterol with respect to the basal level", "setting": "[2]; [5]", "result": 28.0, "unit": "%"},
      {"measurement": "reduction's mean in the number of triglycerids with respect to the basal level", "setting": "[2]; [5]", "result": 66, "unit": "%"},
      {"measurement": "COL.", "setting": "[2]; 15 days of treatment", "result": "6.37 and 9.74 and 3.92 and 8.73"},
      {"measurement": "HDL", "setting": "[2]; 15 days of treatment", "result": "1.7 and 0.98 and 1.05 and 1.03"},
      {"measurement": "LDL", "setting": "[2]; 15 days of treatment", "result": "4.14 and 6.07 and 1.86 and 5.35"},
      {"measurement": "TG", "setting": "[2]; 15 days of treatment", "result": "1.16 and 5.98 and 3.11 and 5.18"},
      {"measurement": "VLDL", "setting": "[2]; 15 days of treatment", "result": "0.53 and 2.61 and 1.01 and 2.35"},
      {"measurement": "COL.", "setting": "[2]; 30 days of treatment", "result": "6.16 and 8.4 and 4.07 and 8.5"},
      {"measurement": "HDL", "setting": "[2]; 30 days of treatment", "result": "1.79 and 0.86 and 1.06 and 1.16"},
      {"measurement": "LDL", "setting": "[2]; 30 days of treatment", "result": "3.7 and 4.3 and 2.0 and 5.0"},
      {"measurement": "TG", "setting": "[2]; 30 days of treatment", "result": "1.35 and 6.9 and 3.09 and 5.74"},
      {"measurement": "VLDL", "setting": "[2]; 30 days of treatment", "result": "0.62 and 3.18 and 0.97 and 2.26"},
      {"measurement": "COL.", "setting": "[2]; 60 days of treatment", "result": "5.46 and 9.48 and 3.82 and 9.9"},
      {"measurement": "HDL", "setting": "[2]; 60 days of treatment", "result": "1.57 and 0.91 and 1.05 and 0.98"},
      {"measurement": "LDL", "setting": "[2]; 60 days of treatment", "result": "3.43 and 3.35 and 1.97 and 6.67"},
      {"measurement": "TG", "setting": "[2]; 60 days of treatment", "result": "1 and 10.66 and 1.73 and 3.41"},
      {"measurement": "VLDL", "setting": "[2]; 60 days of treatment", "result": "0.46 and 3.74 and 0.8 and 1.82"},
      {"measurement": "COL.", "setting": "[2]; 120 days of treatment", "result": "5.49 and 8.24 and 3.47 and 13.63"},
      {"measurement": "HDL", "setting": "[2]; 120 days of treatment", "result": "1.56 and 1.08 and 1.16 and 0.7"},
      {"measurement": "LDL", "setting": "[2]; 120 days of treatment", "result": "3.26 and 4.6 and 1.61 and 1.46"},
      {"measurement": "TG", "setting": "[2]; 120 days of treatment", "result": "1.45 and 6.36 and 1.51 and 31.7"},
      {"measurement": "VLDL", "setting": "[2]; 120 days of treatment", "result": "0.67 and 2.56 and 0.7 and 9.67"},
      {"measurement": "COL.", "setting": "[2]; 180 days of treatment", "result": "6.15 and 9.64 and 3.76 and 13.21"},
      {"measurement": "HDL", "setting": "[2]; 180 days of treatment", "result": "1.56 and 1.04 and 0.94 and 1.48"},
      {"measurement": "LDL", "setting": "[2]; 180 days of treatment", "result": "3.38 and 2.3 and 1.5 and 2.09"},
      {"measurement": "TG", "setting": "[2]; 180 days of treatment", "result": "2.63 and 15.75 and 2.87 and 16.37"},
      {"measurement": "VLDL", "setting": "[2]; 180 days of treatment", "result": "1.21 and 4.38 and 132 and 3.97"},
      {"measurement": "COL.", "setting": "[2]; 240 days of treatment", "result": "5.7 and 8.1 and 4.04 and 5.33"},
      {"measurement": "HDL", "setting": "[2]; 240 days of treatment", "result": "1.67 and 0.98 and 1.09 and 1.17"},
      {"measurement": "LDL", "setting": "[2]; 240 days of treatment", "result": "3.3 and 4.93 and 2.1 and 3.16"},
      {"measurement": "TG", "setting": "[2]; 240 days of treatment", "result": "1.59 and 5.36 and 1.85 and 2.18"},
      {"measurement": "VLDL", "setting": "[2]; 240 days of treatment", "result": "0.73 and 2.12 and 0.85 and 1"},
      {"measurement": "COL.", "setting": "[2]; 300 days of treatment", "result": "6.01 and 9.3 and 4.34 and 4.27"},
      {"measurement": "HDL", "setting": "[2]; 300 days of treatment", "result": "1.23 and 1.08 and 0.89 and 1.22"},
      {"measurement": "LDL", "setting": "[2]; 300 days of treatment", "result": "4.06 and 5.31 and 2.7 and 2.42"},
      {"measurement": "TG", "setting": "[2]; 300 days of treatment", "result": "1.57 and 7.21 and 1.62 and 1.36"},
      {"measurement": "VLDL", "setting": "[2]; 300 days of treatment", "result": "0.72 and 2.92 and 0.75 and 0.63"}
    ]}
  ]
}
